{"source": "patent US9981909B2", "about": "(Janssen Pharmaceutica NV, priority 2008, dated 2018)", "note": "Structures can show the parent of a compound that is named as a salt."}
{"biological_target": "rat 5-HT7 receptor (Rattus norvegicus (Rat), UniProt P32305)", "sequence (P32305 1-435)": "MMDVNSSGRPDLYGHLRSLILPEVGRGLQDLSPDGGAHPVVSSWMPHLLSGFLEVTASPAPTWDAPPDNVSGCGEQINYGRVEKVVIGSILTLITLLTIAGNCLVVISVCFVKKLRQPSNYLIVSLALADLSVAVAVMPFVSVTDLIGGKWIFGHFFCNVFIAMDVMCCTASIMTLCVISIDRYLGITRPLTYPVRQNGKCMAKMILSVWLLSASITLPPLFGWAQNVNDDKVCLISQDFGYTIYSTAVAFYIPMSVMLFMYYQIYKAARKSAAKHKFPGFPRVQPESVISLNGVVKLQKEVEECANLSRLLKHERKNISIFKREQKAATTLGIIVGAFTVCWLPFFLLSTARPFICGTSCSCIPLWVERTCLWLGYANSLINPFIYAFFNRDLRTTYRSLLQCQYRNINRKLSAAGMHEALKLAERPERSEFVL", "experiment": "r5-HT7 binding assay, competitive radioligand binding with [3H]5-CT", "conditions": "rat 5-HT7, HEK-293 membranes", "protocol": "(§1) Receptor binding was performed using membrane fractions prepared from the HEK-293 cell line recombinantly expressing rat 5-HT7 receptors (NCBI accession NM_022938). Compound affinity for the rat 5-HT7 receptor subtype was evaluated by competitive radioligand binding assays using 5-carboxamido[^3H]tryptamine ([^3H]5-CT) (Amersham Biosciences, cat. 90000403) detection. HitHunter™ cAMP assays are in-vitro based competitive immunoassays. The assay was performed on the HEK-293 cell line stably transfected with r5-HT7 receptor. Cells were pre-incubated with test compounds for 10 minutes. For antagonist testing, the cells were then challenged with 100 nM 5-CT for 20 minutes. Cells were then lysed and cAMP measured according to manufacturers protocol (Amersham, cat. NET791250UC) or [^3H]mesulergine (Amersham, cat. TRK1041). The assay was performed on membranes prepared from HEK-293 cells stably transfected with h5-HT6. Following centrifugation, membranes were resuspended and incubated for 60 min at room temperature with 1.7 nM [^3H]LSD in the presence of increasing concentration of test compounds. Nonspecific binding was defined in the presence of 10 μM clozapine (Tocris, cat. TRK1068). Homogenized HEK-293 membranes expressing the human SERT were incubated in 50 mM Tris-HCl (pH 7.5), 120 mM NaCl, 5 mM KCl with [^3H]-citalopram (3 nM) with or without test compounds. Nonspecific binding was determined in the presence of 10 μM fluoxetine. Radioactivity readouts and Ki values were performed as previously described for r5-HT7. […] Compounds were assayed in their free form or as salts, as indicated in the Examples section above.", "units": {"Ki": "nM"}}
{"smiles": "CC1(Oc2cc(Br)ccc2Oc2ccccc2)CNC1", "note": "[Example 218, 3-(5-Bromo-2-phenoxy-phenoxy)-3-methyl-azetidine]", "Ki": 69}
{"smiles": "O=C(c1ccc2ccccc2c1)c1ccc(Cl)cc1OC1CNC1", "note": "[Example 294, [2-(Azetidin-3-yloxy)-4-chloro-phenyl]-naphthalen-2-yl-methanone]", "Ki": 72}
{"smiles": "CCc1noc(COc2ccc(Cl)cc2OC2CNC2)n1", "note": "[Example 243, 5-[2-(Azetidin-3-yloxy)-4-chloro-phenoxymethyl]-3-ethyl-[1,2,4]oxadiazole hydrochloride]", "Ki": 461}
{"smiles": "CC(C)c1noc(COc2ccc(Cl)cc2OC2CNC2)n1", "note": "[Example 242, 5-[2-(Azetidin-3-yloxy)-4-chloro-phenoxymethyl]-3-isopropyl-[1,2,4]oxadiazole hydrochloride]", "Ki": 273}
{"smiles": "Cc1noc(COc2ccc(Cl)cc2OC2CNC2)n1", "note": "[Example 239, 5-[2-(Azetidin-3-yloxy)-4-chloro-phenoxymethyl]-3-methyl-[1,2,4]oxadiazole]", "Ki": 233}
{"smiles": "Fc1ccc(Oc2ccc(Br)cc2OC2CNC2)cc1", "note": "[Example 249, 3-[5-Bromo-2-(4-fluoro-phenoxy)-phenoxy]-azetidine]", "Ki": 20}
{"smiles": "CC(C)N1CC(Oc2cc(Br)ccc2C(=O)c2ccc3c(c2)OCO3)C1", "note": "[Example 290, Benzo[1,3]dioxol-5-yl-[4-bromo-2-(1-isopropyl-azetidin-3-yloxy)-phenyl]-methanone]", "Ki": 143}
{"smiles": "CC(C)N1CC(Oc2cc(Br)ccc2C(=O)c2ccc3ccccc3c2)C1", "note": "[Example 288, [4-Bromo-2-(1-isopropyl-azetidin-3-yloxy)-phenyl]-naphthalen-2-yl-methanone]", "Ki": 59}
{"smiles": "CC(C)N1CC(Oc2cc(Cl)ccc2C(=O)c2ccc3c(c2)OCO3)C1", "note": "[Example 296, Benzo[1,3]dioxol-5-yl-[4-chloro-2-(1-isopropyl-azetidin-3-yloxy)-phenyl]-methanone]", "Ki": 181}
{"smiles": "Clc1ccc(Oc2nc3ccccc3s2)c(OC2CNC2)c1", "note": "[Example 261, 2-[2-(Azetidin-3-yloxy)-4-chloro-phenoxy]-benzothiazole]", "Ki": 1600}
{"smiles": "CC(C)N1CC(Oc2ccc(Cl)cc2OC2CN(C(C)C)C2)C1", "note": "[Example 227, 3-[5-Chloro-2-(1-Isopropyl-azetidin-3-ol)-phenoxy]-1-isopropyl-azetidine]", "Ki": 336}
{"smiles": "CC(Oc1cc(Br)ccc1OCc1cccc(Cl)c1)C1(O)CNC1", "note": "(stereo not shown) [Example 236, 3-[1-[5-Bromo-2-(3-chloro-benzyloxy)-phenoxy]-ethyl]-azetidin-3-ol]", "Ki": 831}
{"smiles": "Cc1cccc(C(=O)c2ccc(Br)cc2OC2CNC2)c1", "note": "[Example 284, [2-(Azetidin-3-yloxy)-4-bromo-phenyl]-m-tolyl-methanone]", "Ki": 19}
{"smiles": "Clc1ccc(OCc2nc(C3CC3)no2)c(OC2CNC2)c1", "note": "[Example 241, 5-[2-(Azetidin-3-yloxy)-4-chloro-phenoxymethyl]-3-cyclopropyl-[1,2,4]oxadiazole hydrochloride]", "Ki": 263}
{"biological_target": "rat 5-HT7 receptor (Rattus norvegicus (Rat), UniProt P32305)", "experiment": "r5-HT7 binding assay, competitive radioligand binding with [3H]5-CT", "conditions": "rat 5-HT7 receptor, HEK-293 membranes", "protocol": "as §1", "units": {"Ki": "nM"}}
{"smiles": "CC(C)N1CC(Oc2cc(Br)ccc2OCc2cccc(F)c2)C1", "note": "[Example 20, 3-[5-Bromo-2-(3-fluoro-benzyloxy)-phenoxy]-1-isopropyl-azetidine]", "Ki": 8}
{"smiles": "CN1CC(Oc2cc(Br)ccc2OCc2ccccc2Cl)C1", "note": "[Example 16, 3-[5-Bromo-2-(2-chloro-benzyloxy)-phenoxy]-1-methyl-azetidine]", "Ki": 100}
{"smiles": "CC(Oc1ccc(Cl)cc1OC1CN(C(C)C)C1)c1cccc(C(F)(F)F)c1", "note": "(racemic) [Example 106, (±)-3-[5-Chloro-2-[1-(3-trifluoromethyl-phenyl)-ethoxy]-phenoxy]-1-isopropyl-azetidine]", "Ki": 75}
{"smiles": "C[C@@H](Oc1ccc(Cl)cc1OC1CCCNC1)c1cccc(C(F)(F)F)c1", "note": "(stereo partly drawn) [Example 139, (R,S)-3-[5-Chloro-2-[1-((R)-3-trifluoromethyl-phenyl)-ethoxy]-phenoxy]-piperidine]", "Ki": 189}
{"smiles": "ON=C1c2ccccc2CC1Oc1ccc(Cl)cc1OC1CNC1", "note": "(stereo not shown) [Example 179, 2-[2-(Azetidin-3-yloxy)-4-chloro-phenoxy]-indan-1-one oxime]", "Ki": 360}
{"smiles": "CC(Oc1ccc(Cl)cc1OC1CNC1)c1cccc(SC(F)(F)F)c1", "note": "(racemic) [Example 120, (±)-3-[5-Chloro-2-[1-(3-trifluoromethylsulfanyl-phenyl)-ethoxy]-phenoxy]-azetidine]", "Ki": 40}
{"smiles": "O=C(COc1ccc(Cl)cc1OC1CNC1)c1ccc(Cl)cc1", "note": "[Example 183, 2-[2-(Azetidin-3-yloxy)-4-chloro-phenoxy]-1-(4-chloro-phenyl)-ethanone]", "Ki": 110}
{"smiles": "CC(Oc1ccc(Cl)cc1OC1CNC1)c1ccccc1C(F)(F)F", "note": "(racemic) [Example 122, (±)-3-[5-Chloro-2-[1-(2-trifluoromethyl-phenyl)-ethoxy]-phenoxy]-azetidine]", "Ki": 210}
{"smiles": "FC(F)(F)Sc1ccc(COc2ccc(Cl)cc2OC2CNC2)cc1", "note": "[Example 46, 3-[5-Chloro-2-(4-trifluoromethylsulfanyl-benzyloxy)-phenoxy]-azetidine]", "Ki": 102}
{"smiles": "Clc1ccc(OCC2COc3ccccc3C2)c(OC2CNC2)c1", "note": "(stereo not shown) [Example 167, 3-[5-Chloro-2-(chroman-3-ylmethoxy)-phenoxy]-azetidine]", "Ki": 167}
{"smiles": "CN1CC[C@@H](Oc2cc(Cl)ccc2OCc2ccccc2Cl)C1", "note": "[Example 61, (R)-3-[5-Chloro-2-(2-chloro-benzyloxy)-phenoxy]-1-methyl-pyrrolidine]", "Ki": 36}
{"smiles": "Fc1ccc(OCc2cccc(Cl)c2)c(OC2CN(C3CCC3)C2)c1", "note": "[Example 205, 3-[2-(3-Chloro-benzyloxy)-5-fluoro-phenoxy]-1-cyclobutyl-azetidine]", "Ki": 27}
{"smiles": "CN1CCC(Oc2cc(Br)ccc2OCc2ccccc2)C1", "note": "(racemic) [Example 98, (±)-3-(2-Benzyloxy-5-bromo-phenoxy)-1-methyl-pyrrolidine]", "Ki": 23}
{"smiles": "FCC(Oc1ccc(Cl)cc1OC1CNC1)c1ccccc1", "note": "(stereo not shown) [Example 143, 3-[5-Chloro-2-(2-fluoro-1-phenyl-ethoxy)-phenoxy]-azetidine]", "Ki": 215}
{"smiles": "Cc1cc(COc2ccc(Cl)cc2OC2CNC2)n(C)n1", "note": "[Example 170, 5-[2-(Azetidin-3-yloxy)-4-chloro-phenoxymethyl]-1,3-dimethyl-1H-pyrazole]", "Ki": 5000}
{"smiles": "CC(Oc1ccc(Cl)cc1OC1CNC1)c1cncs1", "note": "(stereo not shown) [Example 132, 5-[1-[2-(Azetidin-3-yloxy)-4-chloro-phenoxy]-ethyl]-thiazole]", "Ki": 456}
{"smiles": "Fc1ccc(COc2ccc(Cl)cc2OC2CNC2)c(F)c1", "note": "[Example 57, 3-[5-Chloro-2-(2,4-difluoro-benzyloxy)-phenoxy]-azetidine]", "Ki": 42}
{"smiles": "CC(Oc1ccc(Cl)cc1OC1CNC1)c1cc(Cl)ccc1Cl", "note": "(racemic) [Example 129, (±)-3-[5-Chloro-2-[1-(2,5-dichloro-phenyl)-ethoxy]-phenoxy]-azetidine trifluoroacetate]", "Ki": 903}
{"smiles": "CCC(Oc1ccc(Cl)cc1OC1CNC1)c1cccc(C(F)(F)F)c1", "note": "(racemic) [Example 140, (±)-3-[5-Chloro-2-[1-(3-trifluoromethyl-phenyl)-propoxy]-phenoxy]-azetidine]", "Ki": 230}
{"smiles": "Clc1ccc(OCc2nccs2)c(OC2CNC2)c1", "note": "[Example 88, 2-[2-(Azetidin-3-yloxy)-4-chloro-phenoxymethyl]-thiazole]", "Ki": 681}
{"smiles": "Brc1ccc(OCC2CCCCC2)c(OC2CNC2)c1", "note": "[Example 74, 3-(5-Bromo-2-cyclohexylmethoxy-phenoxy)-azetidine]", "Ki": 11}
{"smiles": "CCOC(=O)c1ccc(COc2ccc(Cl)cc2OC2CNC2)o1", "note": "[Example 55, 5-[2-(Azetidin-3-yloxy)-4-chloro-phenoxymethyl]-furan-2-carboxylic acid ethyl ester]", "Ki": 171}
{"smiles": "FC(F)(F)Oc1ccc(COc2ccc(Cl)cc2OC2CNC2)cc1Cl", "note": "[Example 41, 3-[5-Chloro-2-(3-chloro-4-trifluoromethoxy-benzyloxy)-phenoxy]-azetidine]", "Ki": 130}
{"smiles": "OCC(Oc1ccc(Cl)cc1OC1CNC1)c1ccccc1", "note": "(stereo not shown) [Example 148, 2-[2-(Azetidin-3-yloxy)-4-chloro-phenoxy]-2-phenyl-ethanol]", "Ki": 2000}
{"smiles": "Cc1nc(C)c(C(C)Oc2ccc(Cl)cc2OC2CNC2)s1", "note": "(stereo not shown) [Example 134, 5-[1-[2-(Azetidin-3-yloxy)-4-chloro-phenoxy]-ethyl]-2,4-dimethyl-thiazole]", "Ki": 3830}
{"smiles": "COc1cccc(COc2ccc(Br)cc2OC2CCN(C)C2)c1", "note": "(racemic) [Example 96, (±)-3-[5-Bromo-2-(3-methoxy-benzyloxy)-phenoxy]-1-methyl-pyrrolidine]", "Ki": 13}
{"smiles": "Clc1cccc(COc2cc(Br)ccc2OC2CN(C3CCC3)C2)c1", "note": "[Example 23, 3-[4-Bromo-2-(3-chloro-benzyloxy)-phenoxy]-1-cyclobutyl-azetidine]", "Ki": 121}
{"smiles": "CC(Oc1ccc(Cl)cc1OC1CNC1)c1cccc(OC(F)(F)F)c1", "note": "(racemic) [Example 127, (±)-3-[5-Chloro-2-[1-(3-trifluoromethoxy-phenyl)-ethoxy]-phenoxy]azetidine]", "Ki": 63}
{"smiles": "Clc1ccc(OCc2ccccc2)c(OC2CCCNC2)c1", "note": "(racemic) [Example 70, (±)-3-(2-Benzyloxy-5-chloro-phenoxy)-piperidine]", "Ki": 174}
